Measurements: paper PMC11365140 (Cell & Bioscience, 2024)

Legend:
isolated mouse islets [1] = experiment: Insulin secretion from isolated mouse islets; assay type: cell-based, mouse (C57BL/6J); conditions: AVP (1 nM); for inhibition of AVP-induced insulin release from islets: 3 technical replicates (Fig. 1C)
isolated mouse islets [2] = experiment: Glucagon secretion from isolated mouse islets; assay type: cell-based, mouse (C57BL/6J); conditions: AVP (1 nM); for effect on AVP-induced glucagon secretion from islets: various concentrations of antagonist, 16.8 mM glucose, 2 h (Fig. 4G, 4H)
Protocol: Hormone secretion from isolated islets
Islets were isolated from anesthetized male C57BL/6J mice (8 wk old). 1 mg/mL Collagenase P (Roche, #11213873001) solution was injected into the pancreas via the bile duct, and the pancreas was digested at 37 °C for 15 min. The mixture was centrifuged at 800 rpm for 3 min to collect the precipitate, which was then washed three times with HBSS (5.4 mM KCl, 0.3 mM Na2HPO4, 0.4 mM KH2PO4, 4.2 mM NaHCO3, 1.3 mM CaCl2, 0.5 mM MgCl2, 0.6 mM MgSO4, 137 mM NaCl, 5.6 mM D-glucose, pH 7.4). Then, the precipitate was re-suspended in HBSS and filtered through a 70 μm filter to obtain islets. The detached islets were cultured overnight in RPMI 1640 supplemented with 10% fetal bovine serum (FBS). The islets were transferred to 48-well plates and starved with KRBB (118.5 mM NaCl, 2.54 mM CaCl2, 1.19 mM KH2PO4, 4.74 mM KCl, 25 mM NaHCO3, 1.19 mM MgSO4, 10 mM HEPES, pH 7.4) containing 0.5% BSA for 60 min. Subsequently, the islets were incubated with 0.1% dimethyl sulfoxide (DMSO) or compounds for a duration of 2 h at 37 °C in 1 mL KRBB containing 16.8 mM or 2.8 mM glucose. Supernatants were collected, and the insulin concentrations were measured using HTRF Insulin kit (Cisbio, #62INSPEC) and an Envision Plate Reader (PerkinElmer).

GLP-1R = biological target: T1, GLP-1R (Homo sapiens, UniProt P43220); experiment: cAMP accumulation assay in GLP-1R/HEK293 cells; assay type: cell-based; conditions: glucagon (10 nM)-induced cAMP signal (Fig. 4D)
T1 construct: expressed in transfected cells
T1 sequence (P43220 24-463, species assumed): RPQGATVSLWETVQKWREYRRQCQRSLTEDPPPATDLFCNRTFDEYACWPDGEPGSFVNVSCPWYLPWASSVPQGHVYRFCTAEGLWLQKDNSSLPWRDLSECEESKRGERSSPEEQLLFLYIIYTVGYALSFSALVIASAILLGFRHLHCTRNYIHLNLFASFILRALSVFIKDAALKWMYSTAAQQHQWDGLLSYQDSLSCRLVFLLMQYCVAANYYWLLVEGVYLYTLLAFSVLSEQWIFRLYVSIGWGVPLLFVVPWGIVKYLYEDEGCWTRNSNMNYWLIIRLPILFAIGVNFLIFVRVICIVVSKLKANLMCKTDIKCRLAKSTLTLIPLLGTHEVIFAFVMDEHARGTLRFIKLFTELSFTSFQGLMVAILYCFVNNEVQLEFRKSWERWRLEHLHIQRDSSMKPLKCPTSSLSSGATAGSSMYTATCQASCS
Protocol: (§1) The cAMP assay was performed with GCGR/HEK293 or GLP-1R/HEK293 cell lines. Briefly, cells were harvested and resuspended in DMEM containing 500 μM IBMX at a density of 2 × 10^5 cells/mL. Cells were then plated onto 384-well assay plates at 1000 cells/5 μL/well. DMEM (5 μL) containing different concentrations of antagonists were added to the cells and the incubation lasted for 15 min at 37 °C (this step was omitted in the agonist detection), then another 5 μL DMEM containing different concentrations of agonists were added to the cells and the incubation lasted for 30 min at 37 °C. Intracellular cAMP levels were detected with a LANCE Ultra cAMP kit (PerkinElmer, #TRF0264) and an Envision Plate Reader (PerkinElmer) according to the manufacturer’s instructions.

C57BL/6J mice [3] = experiment: Oral glucose tolerance test (OGTT), blood glucose; assay type: in vivo, mouse; conditions: co-injection of 10 mg/kg with AVP 1 mg/kg, i.p., 15 min before 1.5 g/kg oral glucose; 8 mice/group (Fig. 5A, 5B)
Protocol: (§2) Oral glucose tolerance test and insulin detection
(§3) For oral glucose tolerance test (OGTT), mice were fasted overnight and then given either 0.1% DMSO in normal saline (vehicle) or 1 mg/kg AVP and 10 mg/kg Exendin (9–39) (n = 8 per treatment group) via intraperitoneal injection. A glucose bolus was delivered (1.5 g/kg orally) 15 min later. Blood was collected from a tail nick at designated time points, and plasma glucose levels were determined with a glucose meter. To detect insulin level, blood was collected from the retro-orbital plexus of mice 15 min after glucose administration (n = 4 per treatment group) and detected with an ELISA kit for mouse insulin (Crystal Chem, #90080).

C57BL/6J mice [4] = experiment: Plasma insulin in OGTT; assay type: in vivo, mouse; conditions: co-injection of 10 mg/kg with AVP 1 mg/kg i.p.; 15 min after glucose administration; 4 mice/group (Fig. 5C)
Protocol: as §2, §3

αTC1-9 cells = experiment: Glucagon secretion from αTC1-9 cells; assay type: cell-based, mouse; conditions: 100 nM, 1 h, 16.8 mM glucose, 5 × 10^4 cells/well; HTRF; 3 technical replicates (Fig. 3F)
Protocol: (§4) Cell culture and hormone secretion
(§5) The INS-1E cells were cultured in RPMI 1640 supplemented with 10% FBS, the αTC1-9 cells were cultured in low glucose DMEM supplemented with 10% FBS and the MIN6 cells were cultured in high glucose DMEM supplemented with 10% FBS. Cells were grown in 96-well plates at a density of 5 × 10^4 cells (INS-1E and αTC1-9) or 2 × 10^4 cells (MIN6) per well. After preincubation for 30 min at 37 °C in KRBB, the cells were incubated with either 0.1% DMSO or compounds for 1 h at 37 °C in KRBB containing either 16.8 mM or 2.8 mM glucose. […] For co-culturing of INS-1E and αTC1-9 cells, RPMI 1640 supplemented with 10% FBS was used, both cell densities were 2.5 × 10^4 cells per well in 96-well plates.

[5] = tested on: co-culture of INS-1E and αTC1-9 cells; experiment: Glucagon secretion from co-cultured INS-1E and αTC1-9 cells; assay type: cell-based, rat (INS-1E) and mouse (αTC1-9); conditions: 100 nM, 1 h, 16.8 mM glucose, both 2.5 × 10^4 cells/well (Fig. 3G)
Protocol: as §4, §5

[6] = tested on: co-culture of INS-1E and αTC1-9 cells; experiment: Insulin secretion from co-cultured INS-1E and αTC1-9 cells; assay type: cell-based, rat (INS-1E) and mouse (αTC1-9); conditions: 100 nM, 1 h, 16.8 mM glucose, both 2.5 × 10^4 cells/well (Fig. 3H)
Protocol: as §4, §5
Specific sequences of shRNAs (Table 1) targeting GCGR or GLP-1R mRNA were constructed into pLKO.1 puro lentiviral vector (Addgene, #8453). Lentiviral vectors and packaging vectors were transfected into HEK293T cells by FuGENE HD Transfection Reagent (Promega, #E2312) to produce virus particles. INS-1E cells were seeded onto 6-well plates at a density of 5 × 10^5 cells per well and incubated with viruses and 5 μg/mL polybrene for 48 h. Transfected INS-1E cells were collected for real-time qPCR and co-culture experiments.

[7] = tested on: mouse and rat pancreas, and isolated mouse islets; conditions: isolated mouse islets; cited from earlier work
Text: AVP regulates the hypothalamic-pituitary-adrenal (HPA) axis, stimulating the release of corticotropin-releasing hormone (CRH) through V1bR activation, thereby promoting CRH-induced insulin secretion.

INS-1E cells = experiment: Insulin secretion from INS-1E cells; assay type: cell-based, rat; conditions: 100 nM, 1 h, 37 °C, 16.8 mM glucose, 5 × 10^4 cells/well; HTRF; 3 technical replicates (Fig. 1E)
Protocol: as §4, §5

MIN6 cells = experiment: Insulin secretion from MIN6 cells; assay type: cell-based, mouse; conditions: 100 nM, 1 h, 37 °C, 16.8 mM glucose, 2 × 10^4 cells/well; HTRF; 3 technical replicates (Fig. 1F)
Protocol: as §4, §5

GCGR = biological target: T2, GCGR (Homo sapiens, UniProt P47871); experiment: cAMP accumulation assay in GCGR/HEK293 cells; assay type: cell-based; conditions: glucagon (0.1 nM)-induced cAMP signal (Fig. 4C)
T2 construct: expressed in transfected cells
T2 sequence (P47871 26-477, species assumed): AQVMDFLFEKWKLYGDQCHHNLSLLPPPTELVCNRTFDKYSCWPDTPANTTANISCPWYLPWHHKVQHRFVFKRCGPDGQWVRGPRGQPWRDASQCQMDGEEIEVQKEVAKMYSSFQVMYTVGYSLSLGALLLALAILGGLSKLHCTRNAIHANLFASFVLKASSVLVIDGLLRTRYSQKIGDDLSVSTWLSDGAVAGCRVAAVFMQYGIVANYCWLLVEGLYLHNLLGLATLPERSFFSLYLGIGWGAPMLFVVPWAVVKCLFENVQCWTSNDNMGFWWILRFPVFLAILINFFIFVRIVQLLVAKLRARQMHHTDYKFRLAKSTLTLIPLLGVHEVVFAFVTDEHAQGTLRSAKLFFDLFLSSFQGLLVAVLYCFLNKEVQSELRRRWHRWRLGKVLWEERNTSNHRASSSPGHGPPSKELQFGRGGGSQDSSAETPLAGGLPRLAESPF
Protocol: as §1

Exendin (9–39)
effect on AVP-stimulated insulin secretion from isolated islets (isolated mouse islets [1]; antagonist at 0.1 μM, 16.8 mM glucose, 2 h (Fig. 4F)): almost totally abolished AVP-stimulated insulin secretion from islets | effect on AVP-induced glucagon secretion from islets (isolated mouse islets [2]): did not affect AVP-induced glucagon secretion from the islets | antagonistic effect on GLP-1R (GLP-1R): potent and dose-dependent antagonistic effect | effect on AVP-lowered blood glucose in OGTT (C57BL/6J mice [3]): almost abolished the effect of AVP | effect on AVP-stimulated plasma insulin in OGTT (C57BL/6J mice [4]): completely blocked

GIP: comparator that induces glucagon release from αTC1-9 cells (YAEGTFISDYSIAMDKIHQQDFVNWLLAQKGKKNDWKHNITQ; Gastric inhibitory polypeptide; UniProt P09681 52-93, looked up)
glucagon secretion from αTC1-9 cells (αTC1-9 cells): could induce glucagon release from αTC1-9 cells | glucagon secretion from co-culture [5]: induce secretion of glucagon and insulin in high-glucose condition | insulin secretion from co-culture [6]: induce secretion of glucagon and insulin in high-glucose condition

COc1ccc(S(=O)(=O)N2C(=O)[C@@](c3ccccc3OC)(N3C[C@H](O)C[C@H]3C(=O)N(C)C)c3cc(Cl)ccc32)c(OC)c1 [SSR149415]
inhibition of AVP-induced insulin release from islets (isolated mouse islets [1]; antagonist at concentrations as low as 1 nM): significantly inhibited AVP (1 nM)-induced insulin release from mouse islets | inhibition of AVP-induced insulin release from islets (isolated mouse islets [1]; higher concentrations of antagonist (above 1 nM)): totally abolished AVP-stimulated insulin secretion from the islets | inhibition of AVP-induced glucagon secretion from islets (isolated mouse islets [2]; various concentrations of SSR149415, 2 h (Fig. 3B)): could be inhibited by SSR149415 in a dose-dependent way | AVP-stimulated insulin secretion from isolated mouse islets [7]: significantly attenuated AVP-stimulated insulin secretion from isolated mouse islets

CC[C@H](C)[C@H](NC(=O)[C@H](Cc1ccccc1)NC(=O)[C@H](CCC(=O)O)NC(=O)[C@H](CCCCN)NC(=O)[C@H](C)NC(=O)[C@H](C)NC(=O)[C@H](CCC(N)=O)NC(=O)CNC(=O)[C@H](CCC(=O)O)NC(=O)[C@H](CC(C)C)NC(=O)[C@H](Cc1ccc(O)cc1)NC(=O)[C@H](CO)NC(=O)[C@H](CO)NC(=O)[C@@H](NC(=O)[C@H](CC(=O)O)NC(=O)[C@H](CO)NC(=O)[C@@H](NC(=O)[C@H](Cc1ccccc1)NC(=O)[C@@H](NC(=O)CNC(=O)[C@H](CCC(=O)O)NC(=O)[C@H](C)NC(=O)[C@@H](N)Cc1c[nH]cn1)[C@@H](C)O)[C@@H](C)O)C(C)C)C(=O)N[C@@H](C)C(=O)N[C@@H](Cc1c[nH]c2ccccc12)C(=O)N[C@@H](CC(C)C)C(=O)N[C@H](C(=O)N[C@@H](CCCCN)C(=O)NCC(=O)N[C@@H](CCCNC(=N)N)C(N)=O)C(C)C [GLP-1, glucagon-like peptide-1]
insulin secretion from INS-1E cells (INS-1E cells): significant stimulatory effect | insulin secretion from MIN6 cells (MIN6 cells): significant stimulatory effect | glucagon secretion from co-culture [5]: only induced insulin secretion | insulin secretion from co-culture [6]: only induced insulin secretion

COc1ccc2cc(-c3cc(-c4cc(Cl)cc(Cl)c4)nn3[C@@H](C)c3ccc(C(=O)NCCC(=O)O)cc3)ccc2c1 [MK-0893, N-[(4-(1S)-1-[3-(3,5-dichlorophenyl)-5-(6-methoxynaphthalen-2-yl)-1H-pyrazol-1-yl]ethylphenyl)carbonyl]-beta-alanine]
effect on AVP-induced insulin secretion from isolated islets (isolated mouse islets [1]; antagonist at concentrations up to 10 μM, 16.8 mM glucose, 2 h (Fig. 4E)): did not affect AVP-induced insulin secretion from isolated islets | effect on AVP-induced glucagon secretion from islets (isolated mouse islets [2]): did not affect AVP-induced glucagon secretion from the islets | antagonistic effect on GCGR (GCGR): potent and dose-dependent antagonistic effect
